Literature values in patent publication US6803187B1 (priority 1998, dated 2004).

Legend:
HIV protease = conditions: HIV-1 protease numbering

**Q.** Which “share of indinavir resistant isolates cross-resistant to nelfinavir” value (HIV; human, in vivo) does the source give for CC(C)(C)NC(=O)[C@@H]1CN(Cc2cccnc2)CCN1C[C@@H](O)C[C@@H](Cc1ccccc1)C(=O)N[C@H]1c2ccccc2C[C@H]1O [MK-639, indinavir] here?
**A.** Approximately one third

**Q.** For CC(C)(C)NC(=O)[C@@H]1C[C@@H]2CCCC[C@@H]2CN1C[C@@H](O)[C@H](Cc1ccccc1)NC(=O)[C@H](CC(N)=O)NC(=O)c1ccc2ccccc2n1 [Ro 31-8959, saquinavir], which “patients in whom resistant variants emerge” value (HIV; after 1 year of monotherapy, mutations at positions 90 and/or 48) is on record?
**A.** approximately 45%

**Q.** For CC(C)CN(C[C@@H](O)[C@H](Cc1ccccc1)NC(=O)O[C@H]1CCOC1)S(=O)(=O)c1ccc(N)cc1 [VX-478], which “amino acid position/codon whose change confers resistance” value (HIV protease) is on record?
**A.** 50
